# Data published in PMC2008936 (British Journal of Cancer, 1973).
# What was measured:
# [1] = tested on: E. coli AB 2480 (uvrA recA)
# S. typhimurium TA 1530 = assay type: cell-based, Salmonella typhimurium
# [2] = microsomes
# rat liver = settings: in vivo; cited from earlier work
# Neurospora = settings: cited from earlier work
# S. typhimurium his G46 = assay type: cell-based, Salmonella typhimurium
# S. typhimurium his C207 = assay type: cell-based, Salmonella typhimurium
# Drosophila = settings: in vivo; cited from earlier work
# [3] = tested on: bacterial transforming DNA; settings: cited from earlier work
# in vitro = settings: male, Wistar, Escherichia coli (indicator bacteria); rat (liver fraction)
molecule,measurement,setting,value
COc1cccc2oc3c4c(cc(OC)c3c(=O)c12)OC1OC=CC41 (centres unmarked) [O-methylsterigmatocystin],Formation of toxic metabolites on incubation with mixed function oxidases,[1],Toxic metabolites were also formed
"OCC(S)CS (centres unmarked) [2,3-Dimercaptopropanol]",Effect of added agent on bacterial killing by the aflatoxin B1 metabolite,S. typhimurium TA 1530,some protective action
same,Inhibition of killing (fold),S. typhimurium TA 1530,three-fold
same,Survivors in the presence of dimercaptopropanol,S. typhimurium TA 1530,42%
same,Effect on amount of aflatoxin B1 metabolized,[2],no alteration in the amount of aflatoxin B1 metabolized
"COc1cc2c(c3oc(=O)cc(CCO)c13)C1C=COC1O2 (centres unmarked) [Parasiticol, parasiticol]",Formation of toxic metabolites on incubation with mixed function oxidases,[1],Toxic metabolites were also formed
CSCC[C@H](N)C(=O)O [methionine],Effect of added agent on bacterial killing by the aflatoxin B1 metabolite,S. typhimurium TA 1530,did not alter bacterial killing
"O=C1c2cc(O)cc(O)c2C(=O)c2c1cc1c(c2O)[C@@H]2C=CO[C@@H]2O1 [Versicolorin A, versicolorin A]",Formation of toxic metabolites on incubation with mixed function oxidases,[1],Toxic metabolites were also formed
"c1ccc2c(c1)cc1ccc3cccc4ccc2c1c34 [benzo(a)pyrene, reference compound]",Effect of pretreatment of rats on amount of lethal aflatoxin B1 metabolite formed by liver,[1],did not alter the amount
O=S([O-])([O-])=S.[Na+].[Na+] [sodium thiosulphate],Effect of added agent on bacterial killing by the aflatoxin B1 metabolite,S. typhimurium TA 1530,did not alter bacterial killing
"Cc1ccc2cc3c(ccc4ccccc43)c3c2c1CC3 [3-methylcholanthrene, reference compound]",Effect of pretreatment of rats on amount of lethal aflatoxin B1 metabolite formed by liver,[1],did not alter the amount
aflatoxin B1,Liver carcinogenicity,rat liver,most potent liver carcinogen known for the rat
same,Mutagenicity,Neurospora,mutagenic
same,Effect of incubation at 30 C on number of bacteria killed,S. typhimurium TA 1530,a decrease in the number of bacteria killed
same,Mutation of the strain by the aflatoxin B1 metabolite,S. typhimurium his G46,not mutated by it
same,Sensitivity of the strain to the toxic effects of the metabolite,S. typhimurium his G46,resistant to the toxic effects
same,Mutation of the strain by the aflatoxin B1 metabolite,S. typhimurium his C207,not mutated by it
same,Sensitivity of the strain to the toxic effects of the metabolite,S. typhimurium his C207,resistant to the toxic effects
same,Killing activity with heat denatured liver preparation,[1],abolished all killing activity
same,Mutagenicity,Drosophila,mutagenic
same,Mutagenicity,[3],mutagenic
"CCC1(c2ccccc2)C(=O)NC(=O)NC1=O [Phenobarbitone, phenobarbitone, reference compound]",Effect of pretreatment of rats on amount of lethal aflatoxin B1 metabolite formed by liver,[1],an increase was observed
sodium sulphide,Effect of added agent on bacterial killing by the aflatoxin B1 metabolite,S. typhimurium TA 1530,did not alter bacterial killing
COc1cc2c(c3oc4cccc(O)c4c(=O)c13)[C@@H]1C=CO[C@@H]1O2 [sterigmatocystin],Survival [no. viable bacteria (treated)/no. viable bacteria (control) x 100],[1],0- 3
same,viability,in vitro,0.5%
COc1c2c(c3oc4cccc(O)c4c(=O)c3c1OC)C1C=COC1O2 (centres unmarked) [5-methoxysterigmatocystin],Formation of toxic metabolites on incubation with mixed function oxidases,[1],Toxic metabolites were also formed
N[C@@H](CCC(=O)N[C@@H](CS)C(=O)NCC(=O)O)C(=O)O [glutathione],Effect of added agent on bacterial killing by the aflatoxin B1 metabolite,S. typhimurium TA 1530,did not alter bacterial killing
N[C@@H](CS)C(=O)O [cysteine],Effect of added agent on bacterial killing by the aflatoxin B1 metabolite,S. typhimurium TA 1530,did not alter bacterial killing
C1CCC2OC2C1 (centres unmarked) [cyclohexene oxide],Effect of added agent on bacterial killing by the aflatoxin B1 metabolite,S. typhimurium TA 1530,did not alter bacterial killing
